Marks after values point to notes of the source that are not given here.
Tests used:
[1] = target: T1, influenza virus neuraminidase (Influenza A virus, UniProt P03468); assay: Neuraminidase inhibition (NAI) assay; format: biochemical; conditions: 50 μM
T1 construct: mixed with an equal volume of the virus solution (50 μL); host or cells: whole virus suspension
Method: The neuraminidase inhibition assay was carried out to examine the inhibitory effect of the tested flavonoids on influenza virus neuraminidase activity as described previously. The flavonoid compounds were used at concentrations of 10 μM, 50 μM, and 100 μM. Tamiflu, a specific NA blocker, was used as a control with a dose of 1 μM. This assay was conducted in 96-well plates; each flavonoid concentration (50 μL) was mixed with an equal volume of the virus solution (50 μL) using reaction buffer (sodium acetate buffer 150 mM, pH 7, and 1 mM calcium chloride) and incubated for 30 minutes at 37°C. For initiation of the enzymatic reaction, we added 100 μL of the substrate solution (4-MU-NANA; (2′-(4-methylumbelliferyl)-α-d-N-acetylneuraminic acid, sodium salt hydrate; Sigma-Aldrich) that dissolved in the enzyme buffer [33 mM 2-(N-morpholino) ethanesulfonic acid (MES), pH 6.5, and 4 mM CaCl2] to the final concentration of 100 μM to the flavonoids and the virus mixture (100 μL). This reaction mixture was protected from light and incubated at 37°C for 2 hr under shaking condition. For stopping of the reaction, we added the stop solution (150 μl of 0.014 N NaOH in 83% ethanol) to each well. The fluorescence of the released 4-methylumbelliferone fluorescence was measured using a fluorescence plate reader (Molecular Devices, Sunnyvale, CA, USA) (excitation 365 nm, emission 460 nm). […]

[2] = system: influenza A/PR/8/34 (H1N1); assay: In ovo virus titer in embryonated chicken egg; format: in vivo
Method: Virus was serially diluted (10-fold serial dilution) and inoculated into the eggs, and then the virus titers were calculated as log10EID50/ml. At the cellular level, virus titration was determined via the hemagglutination assay (as described in detail in the WHO surveillance guidelines) and by the cytopathic effect (CPE) of MDCK cells induced by viral infection, and expressed as 50% tissue culture infectious doses (TCID50), which were calculated based on the method of Reed and Muench.In mice, 50% mouse lethal dose (MLD50) was defined as 50% egg infective dose (EID50) that led to 50% mice mortality that calculated according to Reed and Muench. The flavonoids quercetin, kaempferol, isorhamnetin, diosmetin, and eriodictyol were purchased from the Indofine Chemical Company, Hillsborough, NJ, USA. The flavonoids and PD-98059 (MEK inhibitor, Calbiochem, La Jolla, CA, USA) were dissolved in dimethylsulfoxide (DMSO, Sigma-Aldrich).The final concentration of DMSO in the culture media is 0.2% (v/v). Tamiflu (Oseltamivir, 75 mg) was purchased from Roche-Korea (Seoul, South Korea) Co. Ltd.

[3] = system: influenza A/PR/8/34 (H1N1); assay: In vivo antiviral assay in infected mice; design: species or system C57BL/6 mice
Method: Six-week-old female C57BL/6 mice purchased from KOATECH (Pyeongtaek, South Korea) infected with the PR8 influenza strain (A/PR/8/34, H1N1). After anesthesia, mice were inoculated with 4.25 log10EID50/mL (5 MLD50/mice) in 30 μL sterile PBS via the intranasal route. Two hours post-infection, each group (13 mice) received the following compounds: (1) Tamiflu capsules were dissolved in PBS at a concentration of 10mg/kg and then centrifuged at 1,000rpm/10minutes for removal of the filler. From this solution 200 μL was administered per day orally for 5 days, or (2) flavonoid (Isorhamnetin) was initially dissolved in 0.2% DMSO and then diluted in PBS to a final concentration of 1 mg/kg and less than 0.2% DMSO. This mixture mixed will by vortex and 30 μL of this mixture was administered per day via the intranasal route for 5 days.
One week after infection, the lungs of 3 mice per group were collected for the virology analysis. Lung tissues were excised, homogenized using a homogenizer (Tissue Lyser, Qiagen, Valencia, CA, USA), and centrifuged (2,000 g for 5 min). Ten-fold serial dilutions of the supernatant from the lung homogenate samples were subjected to the virology assays for virus titer determination. Lung homogenates were injected into the allantoic sac of 10-day-old embryonated eggs, which were incubated at 37°C for 48 hr, after which the allantoic fluid was harvested. The virus titer in the allantoic fluid was assessed using the HA assay. The virus titer (EID50/mL) in the fluid was calculated based on the method of Reed and Muench. For the assessments of body weight and survival rate, mice were observed daily for 14 days and monitored for clinical signs.

ERK = assay: Western blot for ERK phosphorylation; format: cell-based, canine; conditions: 50 μM
Method: To prepare whole-cell extracts, cells were washed 3 times using cold PBS, scraped from the dishes, and suspended in protein extraction buffer containing 1% Triton X-100 (Amresco), 100 mM Tris-HCl, 10 mM NaCl, 10% glycerol, 1 mM sodium orthovanadate (Sigma-Aldrich), 50 mM sodium fluoride (Sigma-Aldrich), and 1 mM phenylmethylsulfonyl fluoride (PMSF; Sigma-Aldrich). After incubation on ice for 30 min, lysates were centrifuged and proteins in the supernatants were quantified using the Bradford Protein Assay Reagent (Bio-Rad). Protein samples were separated via 10% SDS-PAGE and transferred to nitrocellulose membranes ([…]; Protran, Newton, NJ, USA). The membranes were blocked using 5% nonfat dry milk and 0.1% Tween-20 in Tris-buffered saline and probed with the primary antibody. Western blotting was performed using antibodies against t-ERK, p-ERK, actin (Santa Cruz Biotechnology, Dallas, TX, USA), and LC3B (Novus Biologicals, San Diego, CA, USA), as well as anti-mouse, anti-rabbit, and anti-goat IgG-peroxidase-conjugated secondary antibodies (Santa Cruz Biotechnology) and an enhanced chemiluminescence (ECL) kit (Amersham Biosciences, Piscataway, NJ, USA).

[4] = system: influenza A/PR/8/34 (H1N1); format: cell-based, influenza A virus; conditions: post-treatment 48 hr
[5] = system: virus-induced ROS generation in MDCK cells; assay: Virus-induced ROS generation assay (H2DCFDA); format: cell-based, canine; conditions: 50 μM
Method: For the ROS generation assay, MDCK cells were seeded onto 24-well plates and incubated overnight for 80% confluence. The MDCK cells were infected with the virus as described previously and then treated with the flavonoids (post-treatment method). Intracellular ROS levels were detected using a cell-permeable oxidant-sensitive fluorescent probe, 2′, 7′-dichiorofluorescin diacetate (H2DCFDA, Molecular Probes, Eugene, OR, USA). The cells were incubated with 10 μM of H2DCFDA for 30 min at 37°C in the dark. After incubation, the cells were washed twice and covered with PBS. The average ROS generation was determined by fluorescent images that were captured using Nikon Eclipse TE2000-U fluorescence inverted microscope (Nikon, Tokyo, Japan). In this experiment, we used N-acetyl-L-cysteine (NAC; Sigma-Aldrich), a ROS scavenger reagent, and at a concentration of 15 mM as a positive control treatment.

[6] = infected mice, abstract says oral administration

T1 sequence (P03468 whole entry): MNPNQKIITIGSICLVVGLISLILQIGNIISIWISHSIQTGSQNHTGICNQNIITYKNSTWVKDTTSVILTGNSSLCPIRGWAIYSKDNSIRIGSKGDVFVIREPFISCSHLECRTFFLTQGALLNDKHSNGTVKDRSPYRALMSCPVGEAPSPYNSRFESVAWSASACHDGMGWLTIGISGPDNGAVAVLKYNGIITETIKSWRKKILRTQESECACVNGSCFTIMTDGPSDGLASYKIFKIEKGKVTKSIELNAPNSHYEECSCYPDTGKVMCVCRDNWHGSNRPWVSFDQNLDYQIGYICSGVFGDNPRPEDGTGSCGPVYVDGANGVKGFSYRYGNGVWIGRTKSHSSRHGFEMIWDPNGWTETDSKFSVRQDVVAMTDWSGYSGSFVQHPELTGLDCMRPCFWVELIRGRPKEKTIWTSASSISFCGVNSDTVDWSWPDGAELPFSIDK

## COc1cc(-c2oc3cc(O)cc(O)c3c(=O)c2O)ccc1O [Isorhamnetin, isorhamnetin]
[1]
  NA activity: significantly inhibited
[2]
  Virus titer (Embryonated chicken egg): 10^8 ^* EID50/ml
[3]; data not shown
  toxic effect in mice: no significant toxic effect
[3]; infected mice, observed 14 days
  survival rate: 70–80%
[3]; [6]
  decrease in body weight loss: 25%
  decrease in lung virus titer: 2 folds
[3]; vs PBS control group, 14 days
  body weight loss: reduced body weight loss
ERK
  virus-induced ERK phosphorylation: significantly suppressed
[4]
  virus titer in HA assay (virus yield reduction): almost completely suppressed
[5]
  virus-induced ROS generation: significant reduction
